In patent US20120114636A1, “LOW MOLECULAR WEIGHT CYCLIN E (LMW-E) AS A BIOMARKER FOR PERSONALIZATION OF CANCER THERAPIES” (The Board of Regents of the University of Texas System, priority 2009, published 2012):
Where two headings read alike, the source gives them in different places.

What was measured:
MCF-7/Ac1 cells [1] = assay: Western blot of CDK2, phospho-CDK2, cyclin E, pRb; type: cell-based, human
Method: FIG. 28. Effect of increasing concentrations of letrozole in the presence of 25 nM AD on CDK2 kinase activity, activated CDK2 and Rb phosphorylation of MCF7/Ac1 human breast cancer cells. MCF-7/Ac1 cells were treated with the indicated concentrations of letrozole and AD for 3 days. CDK2 kinase assays were performed by immunoprecipitating equal amounts of cell lysate (250 μg) with monoclonal antibodies to CDK2 (D12, sc-6248) coupled to protein G beads, using histone H1 as substrate. […] The same cell lysates were subjected to western blot analysis (50 μg of protein) with the indicated antibodies.
Western blot analysis. Cell lysates were prepared and subjected to western blot analysis as described previously (Akli et al., 2004). Briefly, 50 μg of protein were subjected to electrophoresis on SDS-PAGE and transferred to Immobilon P overnight at 4° C. at […] constant voltage. The blots were blocked overnight at 4° C. in BLOTTO [5% nonfat dried milk in 20 mM Tris, 137 mM NaCl, and 0.05% Tween (pH 7.6)]. After being washed, the blots were incubated in primary antibodies for 3 h. Primary antibodies used were cyclin E (HE-12; Santa Cruz Biotechnology), p21 (0P64; Oncogene Research Products, Boston, Mass.), p27 (K25020; BD Biosciences-Transduction Laboratories, Lexington, Ky.), cyclin-dependent kinase 2 (CDK2; Transduction Laboratories), and actin (Chemicon International, Inc., Temecula, Calif.). Blots were then incubated with goat anti-mouse or anti-rabbit immunoglobulin-horseradish peroxidase conjugate at a dilution of 1:5000 in BLOTTO for 1 h and finally washed and developed by using the Renaissance chemiluminescence system as directed by the manufacturer (Perkin-Elmer Life Sciences, Inc., Boston, Mass.). Western blots were quantitated by densitometric analysis using IPLab Gel software (Scientific Image Processing, Vienna, Va.). Densitometric values of actin were used to standardize for equal protein loading. These values were introduced into the software Graph-Pad Prism version 4.0 (GraphPad Software, Inc., San Diego, Calif.) for statistical analysis.
MCF-7/Ac1 cells were treated with the indicated concentrations of letrozole and AD for 3 days. Cyclin E kinase assays were performed by immunoprecipitating equal amounts of cell lysate (250 μg) with monoclonal antibodies to cyclin E coupled to protein A beads, using histone H1 as substrate. […] The same cell lysates were subjected to western blot analysis (50 μg of protein) with the indicated antibodies. […] The same cell lysates were first immunoprecipitated with cyclin E followed by western blot for p21 and p27. […] The same cell lysates were first immunoprecipitated with CDK2 followed by western blot for p21 and p27. The levels of proteins were measured by densitometric scanning of the corresponding bands and normalized using actin values. The values indicated at the bottom were compared to the values obtained with untreated cells.

MCF-7/Ac1 cells [2] = assay: Cell number of adenovirus-infected cells (LacZ, cyclin EL, T1, T2); type: cell-based, human; details: for inhibition at 1 µM: Homo sapiens, MCF7, 1 μM letrozole, read-out: inhibition of AD-induced growth
Source text: LMW cyclin E, but not full-length cyclin E, overexpressing MCF-7/Ac1 cells partially override the letrozole inhibition of AD-induced S-phase entry and AD-induced CDK2 protein levels. Since overexpression of LMW cyclin E deregulates the G1 to S transition, the inventors interrogated the role of full-length and LMW cyclin E in letrozole response. To this end, the inventors examined the sensitivity of cyclin E overexpressing MCF-7/Ac1 cells to the growth inhibitory effect of letrozole using adenoviruses to overexpress full-length and LMW cyclin E (FIGS. 24A-24D). MCF-7/Ac1 cells were cultured in charcoal stripped serum media (CSSM) for 4 days before infecting them with 4000 m.o.i. of either LacZ, full-length cyclin E (cyclin EL) or LMW cyclin E (cyclin E-T1 and cyclin E-T2). Twenty-four hours later, cells were left either untreated, treated with 25 nM AD alone, or treated with 25 nM AD plus 1 μM letrozole for an additional 3 days (FIGS. 24A-24B). Following the treatment, cells were enumerated or subjected to flow cytometry analysis.
MCF-7/Ac1 cells were cultured in IMEM with 10% charcoal-stripped serum medium (CSSM) without phenol red and with 600 μg/ml of G418 for 4 days before plating. Triplicate wells of 6-well plates were then infected with the indicated adenoviruses (at 4000 m.o.i.) 24 hours before drug treatment. Cells were then left untreated (E2W, estrogen withdrawal) or treated with 25 nM AD (AD) or treated with 25 nM AD and 1 μM letrozole (AD+Let) and collected 3 days later for cell number. Cell growth is expressed as the percentage of the cells compared with the control cells (25 nM AD treated cells). […] MCF-7/Ac1 cells were treated as described in A, and collected for flow cytometry analysis. Histograms represent the S-phase fraction expressed as the percentage of the cells in S-phase compared with the control cells (25 nM AD treated cells). […] The same cell lysates as in A and B were subjected to western blot analysis (50 μg of protein) with cyclin E and CDK2 antibodies. The bar graph represents the densitometric values of the phosphorylated CDK2 bands. […] Left, MCF-7/Ac1 cells were cultured in IMEM with 10% charcoal-stripped serum medium (CSSM) without phenol red and with 600 μg/ml of G418 for 4 days before plating. Cells were then infected with the indicated adenoviruses (at 4000 m.o.i.) 24 hours before drug treatment. Cells were then treated with 25 nM AD and 1 μM letrozole and collected 3 days later for cell number. […] Columns, mean of two to three experiments, each in triplicates; bars, S.D.
To directly address this question, MCF-7/Ac1 cells were cultured in charcoal stripped serum media (CSSM) for 4 days before adding medium with no virus or with 4000 m.o.i. of either LacZ, or LMW cyclin E (cyclin E-T1) adenoviruses. 24 hours later, cells were left untreated, treated with 25 nM AD alone, or treated with 25 nM AD plus 1 μM letrozole for 3 days (FIG. 24D). The AD-induced growth of MCF-7/Ac1 cells was inhibited by letrozole by 51% in uninfected cells and by 58% in LacZ infected cells while the growth of cyclin E-T1 infected cells was inhibited by only 20% (FIG. 24D, left).

Q: For N#Cc1ccc(C(c2ccc(C#N)cc2)n2cncn2)cc1 [letrozole], which “cyclin E protein levels” value (MCF-7/Ac1 cells [1]; 0.5 μM letrozole with 25 nM AD) is on record?
A: slightly decreased

Q: What about the “effect on AD-induced increase in CDK2 protein levels” value (MCF-7/Ac1 cells [1]; increasing letrozole with 25 nM AD) of the same compound?
A: blocked the increase in CDK2 protein levels in a dose dependent manner

Q: And the “phosphorylation of endogenous CDK2 substrate pRb” value (MCF-7/Ac1 cells [1]; letrozole with 25 nM AD)?
A: decreased phosphorylation

Q: And the “inhibition of AD-induced growth” value (MCF-7/Ac1 cells [2]; 1 μM letrozole, cyclin EL, T1, and T2 infected cells, FIG. 24A)?
A: no significant growth inhibition

Q: And the inhibition at 1 µM (MCF-7/Ac1 cells [2]; LacZ infected cells, FIG. 24A)?
A: 56.1%

Q: And the inhibition at 1 µM (MCF-7/Ac1 cells [2]; LacZ infected cells, FIG. 24D)?
A: 58%

Q: What about the inhibition at 1 µM (MCF-7/Ac1 cells [2]; cyclin E-T1 infected cells, FIG. 24D) of the same compound?
A: 20%

Q: And the inhibition at 1 µM (MCF-7/Ac1 cells [2]; uninfected cells, FIG. 24A)?
A: 40.8%

Q: And the inhibition at 1 µM (MCF-7/Ac1 cells [2]; uninfected cells, FIG. 24D)?
A: 51%
